Source: PMC7544787, “One-step purification of two novel thermotolerant β-1,4-glucosidases from a newly isolated strain of Fusarium chlamydosporum HML278 and their characterization” (AMB Express, 2020)

Tested on: T1, β-glucosidase purified from F. chlamydosporum HML278 (BG FH1 / BG FH2, not told which)
T1 construct: native secreted enzyme from solid-state fermentation; native PAGE recovery and Sephacryl S-200; 93 kDa and 52 kDa (SDS-PAGE), single subunit
Test: initial rates, Lineweaver-Burk
Assay type: biochemical, Fusarium chlamydosporum
Settings: pH 4.8, 30 °C; one value given, not told whether BG FH1 or BG FH2
Source text: initial rates, Lineweaver-Burk on β-glucosidase purified from F. chlamydosporum HML278 (BG FH1 / BG FH2, not told which) | By using pNPG as a substrate, it was shown that the Km and Vmax values

Compound: O=[N+]([O-])c1ccc(O[C@@H]2O[C@H](CO)[C@@H](O)[C@H](O)[C@H]2O)cc1 [pNPG]
- Km: 2.76 mg/mL
